Data reported in patent US12275715B2, “Pyridin-2(1H)-one quinolinone derivatives as mutant-isocitrate dehydrogenase inhibitors” (FORMA Therapeutics, Inc., priority 2014, dated 2025).

What was measured:
[1] = molecular target: IDH1-R132H recombinant protein (Homo sapiens, UniProt O75874, R132H); assay: IDH1-R132H enzymatic assay (NADPH consumption, diaphorase/resazurin readout); assay type: biochemical; details: read-out: Enzyme IDH1 R132H Range
Experimental: (§1) Assays were performed in a 384-well black plate. […] After the plate was centrifuged briefly, an aliquot of 10 μL of 2 mM α-ketoglutarate and 20 μM NADPH solution prepared in assay buffer was then added to each well and the reaction was maintained at 25° C. for 45 minutes. An aliquot of 10 μL of diaphorase solution (0.15 U/mL diaphorase and 30 μM Resazurin in assay buffer) was added to each well. […] The IC50 of a given compound was calculated by fitting the dose response curve of inhibition of NADPH consumption at a given concentration with the four parameter logistic equation.

[2] = molecular target: IDH1-R132C recombinant protein (Homo sapiens, UniProt O75874, R132C); assay: IDH1-R132C enzymatic assay (NADPH consumption, diaphorase/resazurin readout); assay type: biochemical; details: read-out: Enzyme IDH1 R132C Range
Sequence of IDH1-R132C recombinant protein (O75874 whole entry R132C): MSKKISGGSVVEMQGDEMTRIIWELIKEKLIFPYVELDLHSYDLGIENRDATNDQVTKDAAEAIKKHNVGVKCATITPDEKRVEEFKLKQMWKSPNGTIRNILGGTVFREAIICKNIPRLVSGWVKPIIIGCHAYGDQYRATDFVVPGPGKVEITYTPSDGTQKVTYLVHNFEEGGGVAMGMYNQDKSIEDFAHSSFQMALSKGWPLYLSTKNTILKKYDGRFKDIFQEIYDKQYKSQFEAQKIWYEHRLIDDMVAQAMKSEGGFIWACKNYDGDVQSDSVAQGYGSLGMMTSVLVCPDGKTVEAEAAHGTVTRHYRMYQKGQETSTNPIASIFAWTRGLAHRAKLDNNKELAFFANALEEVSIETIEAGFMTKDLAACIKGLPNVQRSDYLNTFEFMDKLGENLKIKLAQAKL
Experimental: as §1

[3] = test system: HCT116 isogenic IDH1-R132H mutant cells; assay: Cellular 2-HG assay using HCT116 mutant IDH1 cells (R132H); assay type: cell-based; details: Homo sapiens, HCT-116; cellular 2-HG inhibition, 24 hours, RapidFire mass spectrometry; read-out: HCT116 IDH1 R132H Range
Experimental: (§2) HCT116 isogenic IDH1-R132H and IDH1-R132C mutant cells were cultured in growth media (McCoy's 5A, 10% fetal bovine serum, 1× antibiotic-antimycotic solution and 0.3 mg/mL G418) in 5% CO2 in an incubator at 37° C. To prepare the assay, cells were trypsinized and resuspended in assay media (McCoy's 5A with no L-glutamine, 10% fetal bovine serum, 1× antibiotic-antimycotic solution and 0.3 mg/mL G418). An aliquot of 10,000 cells/100 μL was transferred to each well of a clear 96-well tissue culture plate. The cells were incubated in 5% CO2 at 37° C. in an incubator overnight to allow for proper cell attachment. An aliquot of 50 μL of compound containing assay media were then added to each well and the assay plate was kept in 5% CO2 at 37° C. in an incubator for 24 hours. The media was then removed from each well and 150 μL of a methanol/water mixture (80/20 v/v) was added to each well. The plates were kept at −80° C. freezer overnight to allow for complete cell lysis. An aliquot of 125 μL of extracted supernatant was analyzed by RapidFire high-throughout-mass spectrometry (Agilent) to determine the cellular 2-HG level. The IC50 of a given compound was calculated by fitting the dose response curve of cellular 2-HG inhibition at a given concentration with the four parameter logistic equation

[4] = test system: HCT116 isogenic IDH1-R132C mutant cells; assay: Cellular 2-HG assay using HCT116 mutant IDH1 cells (R132C); assay type: cell-based; details: Homo sapiens, HCT-116; cellular 2-HG inhibition, 24 hours, RapidFire mass spectrometry; read-out: HCT116 IDH1 R132C Range
Experimental: as §2

Sequence of IDH1-R132H recombinant protein (O75874 whole entry R132H): as the sequence (O75874 whole entry R132C) above, with C132H counted along it

SMILES: N#Cc1ccc(NCc2cc3cc(Cl)ccc3[nH]c2=O)c(=O)[nH]1 [Compound I-4, 5-{[(6-chloro-2-oxo-1,2-dihydroquinolin-3-yl)methyl]amino}-6-oxo-1,6-dihydropyridine-2-carbonitrile]
- IC50 [1]: 10 to 100 nM
- IC50 [2]: 100 to 1000 nM

SMILES: O=c1[nH]c2ccc(Cl)cc2cc1CNc1ccc(Br)[nH]c1=O [Compound I-7, 3-{[(6-bromo-2-oxo-1,2-dihydropyridin-3-yl)amino]methyl}-6-chloro-1,2-dihydroquinolin-2-one]
- IC50 [1]: > 1000 nM

SMILES: O=c1[nH]c2ccc(Cl)cc2cc1CNc1ccc(C(F)(F)F)[nH]c1=O [Compound I-8, 6-chloro-3-({[2-oxo-6-(trifluoromethyl)-1,2-dihydropyridin-3-yl]amino}methyl)-1,2-dihydroquinolin-2-one]
- IC50 [1]: > 1000 nM

SMILES: Cn1c(C(F)(F)F)ccc(NCc2cc3cc(Cl)ccc3[nH]c2=O)c1=O [Compound I-9, 6-chloro-3-({[1-methyl-2-oxo-6-(trifluoromethyl)-1,2-dihydropyridin-3-yl]amino}methyl)-1,2-dihydroquinolin-2-one]
- IC50 [1]: 100 to 1000 nM
- IC50 [2]: > 10000 nM

SMILES: COC(=O)c1c[nH]c(=O)c(NCc2cc3cc(Cl)ccc3[nH]c2=O)c1 [Compound I-10, methyl 5-{[(6-chloro-2-oxo-1,2-dihydroquinolin-3-yl)methyl]amino}-6-oxo-1,6-dihydropyridine-3-carboxylate]
- IC50 [1]: > 1000 nM

SMILES: Cn1cccc(NCc2cc3cc(Cl)c(OCc4ccccn4)cc3[nH]c2=O)c1=O [Compound I-12, 6-chloro-3-{[(1-methyl-2-oxo-1,2-dihydropyridin-3-yl)amino]methyl}-7-(pyridin-2-ylmethoxy)-1,2-dihydroquinolin-2-one]
- IC50 [1]: 10 to 100 nM
- IC50 [2]: > 10000 nM

SMILES: C[C@H](Nc1ccc(C#N)n(C)c1=O)c1cc2cc(Cl)ccc2[nH]c1=O [Compound I-13, (S)-5-((1-(6-chloro-2-oxo-1,2-dihydroquinolin-3-yl)ethyl)amino)-1-methyl-6-oxo-1,6-dihydropyridine-2-carbonitrile]
- IC50 [3]: 10 to 100 nM
- IC50 [4]: 10 to 100 nM

SMILES: C[C@H](Nc1ccc(C#N)[nH]c1=O)c1cc2cc(Cl)ccc2[nH]c1=O [Compound I-14, 5-{[(1S)-1-(6-chloro-2-oxo-1,2-dihydroquinolin-3-yl)ethyl]amino}-6-oxo-1,6-dihydropyridine-2-carbonitrile]
- IC50 [1]: 10 to 100 nM
- IC50 [2]: 100 to 1000 nM
- IC50 [3]: 10 to 100 nM
- IC50 [4]: 100 to 1000 nM

SMILES: C[C@H](Nc1ccc(C#N)n(C)c1=O)c1cc2cc(Cl)c(F)cc2[nH]c1=O [Compound I-16, 5-{[(1S)-1-(6-chloro-7-fluoro-2-oxo-1,2-dihydroquinolin-3-yl)ethyl]amino}-1-methyl-6-oxo-1,6-dihydropyridine-2-carbonitrile]
- IC50 [1]: 10 to 100 nM
- IC50 [2]: 100 to 1000 nM
- IC50 [3]: 10 to 100 nM
- IC50 [4]: 100 to 1000 nM

SMILES: C[C@H](Nc1ncc(C#N)n(C)c1=O)c1cc2cc(Cl)ccc2[nH]c1=O [Compound I-17, 5-{[(1S)-1-(6-chloro-2-oxo-1,2-dihydroquinolin-3-yl)ethyl]amino}-1-methyl-6-oxo-1,6-dihydropyrazine-2-carbonitrile]
- IC50 [1]: 10 to 100 nM
- IC50 [2]: 100 to 1000 nM
- IC50 [3]: 10 to 100 nM
- IC50 [4]: 100 to 1000 nM

SMILES: C[C@@H](Nc1ccc(C#N)n(C)c1=O)c1cc2cc(Cl)c(F)cc2[nH]c1=O [Compound I-18, 5-{[(1R)-1-(6-chloro-7-fluoro-2-oxo-1,2-dihydroquinolin-3-yl)ethyl]amino}-1-methyl-6-oxo-1,6-dihydropyridine-2-carbonitrile]
- IC50 [1]: > 1000 nM
- IC50 [2]: > 10000 nM

SMILES: CC(Nc1ccc(C#N)n(C)c1=O)c1cc2cc(Cl)c(F)cc2[nH]c1=O (centres unmarked) [Compound I-19, 5-{[1-(6-chloro-7-fluoro-2-oxo-1,2-dihydroquinolin-3-yl)ethyl]amino}-1-methyl-6-oxo-1,6-dihydropyridine-2-carbonitrile]
- IC50 [1]: 10 to 100 nM
- IC50 [2]: 100 to 1000 nM
- IC50 [3]: 10 to 100 nM
- IC50 [4]: 10 to 100 nM

SMILES: COc1cc2[nH]c(=O)c([C@H](C)Nc3ccc(C#N)n(C)c3=O)cc2cc1Cl [Compound I-20, 5-{[(1S)-1-(6-chloro-7-methoxy-2-oxo-1,2-dihydroquinolin-3-yl)ethyl]amino}-1-methyl-6-oxo-1,6-dihydropyridine-2-carbonitrile]
- IC50 [3]: < 10 nM
- IC50 [4]: 10 to 100 nM

SMILES: COc1cc2[nH]c(=O)c(C(C)Nc3ccc(C#N)n(C)c3=O)cc2cc1Cl (centres unmarked) [Compound I-22, 5-{[1-(6-chloro-7-methoxy-2-oxo-1,2-dihydroquinolin-3-yl)ethyl]amino}-1-methyl-6-oxo-1,6-dihydropyridine-2-carbonitrile]
- IC50 [3]: < 10 nM
- IC50 [4]: 10 to 100 nM

SMILES: C[C@H](Nc1ccc(C#N)n(C)c1=O)c1cc2cc(Cl)c(OCc3ccccn3)cc2[nH]c1=O [Compound I-23, 5-{[(1S)-1-[6-chloro-2-oxo-7-(pyridin-2-ylmethoxy)-1,2-dihydroquinolin-3-yl]ethyl]amino}-1-methyl-6-oxo-1,6-dihydropyridine-2-carbonitrile]
- IC50 [3]: < 10 nM
- IC50 [4]: < 10 nM

SMILES: CC(Nc1ccc(C#N)n(C)c1=O)c1cc2cc(Cl)c(OCc3ccccn3)cc2[nH]c1=O (centres unmarked) [Compound I-25, 5-({1-[6-chloro-2-oxo-7-(pyridin-2-ylmethoxy)-1,2-dihydroquinolin-3-yl]ethyl}amino)-1-methyl-6-oxo-1,6-dihydropyridine-2-carbonitrile]
- IC50 [3]: < 10 nM
- IC50 [4]: < 10 nM

SMILES: C[C@H](Nc1ccc(C#N)n(C)c1=O)c1cc2cc(Cl)c(O[C@H](C)c3ccccn3)cc2[nH]c1=O [Compound I-26, 5-(((S)-1-(6-chloro-2-oxo-7-((R)-1-(pyridin-2-yl)ethoxy)-1,2-dihydroquinolin-3-yl)ethyl)amino)-1-methyl-6-oxo-1,6-dihydropyridine-2-carbonitrile]
- IC50 [3]: < 10 nM
- IC50 [4]: < 10 nM

SMILES: C[C@H](Nc1ccc(C#N)n(C)c1=O)c1cc2cc(Cl)c(OCC3CC3)cc2[nH]c1=O [Compound I-27, 5-{[(1S)-1-[6-chloro-7-(cyclopropylmethoxy)-2-oxo-1,2-dihydroquinolin-3-yl]ethyl]amino}-1-methyl-6-oxo-1,6-dihydropyridine-2-carbonitrile]
- IC50 [3]: < 10 nM
- IC50 [4]: 10 to 100 nM

SMILES: CC(Nc1ccc(C#N)n(C)c1=O)c1cc2cc(Cl)c(OCC3CC(F)(F)C3)cc2[nH]c1=O (centres unmarked) [Compound I-28, 5-[(1-{6-chloro-7-[(3,3-difluorocyclobutyl)methoxy]-2-oxo-1,2-dihydroquinolin-3-yl}ethyl)amino]-1-methyl-6-oxo-1,6-dihydropyridine-2-carbonitrile]
- IC50 [1]: 10 to 100 nM
- IC50 [3]: 10 to 100 nM
- IC50 [4]: 10 to 100 nM

SMILES: CC(C)Oc1cc2[nH]c(=O)c([C@H](C)Nc3ccc(C#N)n(C)c3=O)cc2cc1Cl [Compound I-29, 5-{[(1S)-1-[6-chloro-2-oxo-7-(propan-2-yloxy)-1,2-dihydroquinolin-3-yl]ethyl]amino}-1-methyl-6-oxo-1,6-dihydropyridine-2-carbonitrile]
- IC50 [3]: 10 to 100 nM
- IC50 [4]: 10 to 100 nM

SMILES: C[C@H](Nc1ccc(C#N)n(C)c1=O)c1cc2cc(Cl)cc(F)c2[nH]c1=O [Compound I-30, 5-{[(1S)-1-(6-chloro-8-fluoro-2-oxo-1,2-dihydroquinolin-3-yl)ethyl]amino}-1-methyl-6-oxo-1,6-dihydropyridine-2-carbonitrile]
- IC50 [1]: 10 to 100 nM
- IC50 [2]: 100 to 1000 nM
- IC50 [3]: 10 to 100 nM
- IC50 [4]: 100 to 1000 nM

SMILES: C[C@H](Nc1ccc(C#N)n(C)c1=O)c1cc2cc(Cl)cnc2[nH]c1=O [Compound I-31, 5-{[(1S)-1-(6-chloro-2-oxo-1,2-dihydro-1,8-naphthyridin-3-yl)ethyl]amino}-1-methyl-6-oxo-1,6-dihydropyridine-2-carbonitrile]
- IC50 [1]: 100 to 1000 nM
- IC50 [2]: 1000 to 10000 nM
- IC50 [3]: 10 to 100 nM
- IC50 [4]: > 1000 nM

SMILES: C[C@@H](Nc1ccc(C#N)n(C)c1=O)c1nc2cc(Cl)ccc2[nH]c1=O [Compound I-32, 5-{[(1R)-1-(7-chloro-3-oxo-3,4-dihydroquinoxalin-2-yl)ethyl]amino}-1-methyl-6-oxo-1,6-dihydropyridine-2-carbonitrile]
- IC50 [1]: 100 to 1000 nM
- IC50 [2]: 1000 to 10000 nM
- IC50 [3]: > 1000 nM
- IC50 [4]: > 1000 nM

SMILES: C[C@H](Nc1ccc(C#N)n(C)c1=O)c1nc2cc(Cl)ccc2[nH]c1=O [Compound I-33, 5-{[(1S)-1-(7-chloro-3-oxo-3,4-dihydroquinoxalin-2-yl)ethyl]amino}-1-methyl-6-oxo-1,6-dihydropyridine-2-carbonitrile]
- IC50 [1]: 100 to 1000 nM
- IC50 [2]: 1000 to 10000 nM
- IC50 [3]: 100 to 1000 nM
- IC50 [4]: > 1000 nM
